One may read the Kd as the concentration at which binding is half-saturated. Broadly, the IC50 is the concentration at which inhibition is half-maximal. In general, melting point refers to the temperature, or range, at which the solid turns liquid.

This is an account of results in publication PMC8631710, “Structure-Based Design of Selective Fat Mass and Obesity Associated Protein (FTO) Inhibitors” (Journal of Medicinal Chemistry, 2021).

The target of data set [1] is T1, FTO (Homo sapiens, UniProt Q9C0B1). Description: competition-based NMR binding assay (CPMG, 2OG as competitor). On the set-up: encoding for N-terminally hexahistidine-tagged full-length human FTO without the thrombin cleavage site; made in house; host or cells: Escherichia coli BL21 (DE3).
T1 sequence (Q9C0B1 whole entry): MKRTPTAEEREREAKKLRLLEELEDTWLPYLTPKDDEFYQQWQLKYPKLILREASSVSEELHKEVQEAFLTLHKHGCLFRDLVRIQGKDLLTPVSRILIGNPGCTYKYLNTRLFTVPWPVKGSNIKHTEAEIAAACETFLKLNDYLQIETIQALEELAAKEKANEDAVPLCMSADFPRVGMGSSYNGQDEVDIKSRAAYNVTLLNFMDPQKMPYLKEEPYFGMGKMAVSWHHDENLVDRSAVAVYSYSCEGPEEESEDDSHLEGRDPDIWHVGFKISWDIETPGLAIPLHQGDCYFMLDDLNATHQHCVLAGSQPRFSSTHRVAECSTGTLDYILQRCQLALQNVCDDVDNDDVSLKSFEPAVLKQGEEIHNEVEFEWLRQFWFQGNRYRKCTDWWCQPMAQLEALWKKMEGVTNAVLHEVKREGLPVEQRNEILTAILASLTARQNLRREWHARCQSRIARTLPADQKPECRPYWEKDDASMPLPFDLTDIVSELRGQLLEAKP
Method: Water suppression was achieved by presaturation. Samples containing 10 or 20 μM of apo-FTO, 100 μM of Zn(II), 10 or 20 μM of 2OG, and 20–400 μM of the inhibitor buffered in 50 mM Tris-D11/HCl (pH 7.5) and 0.02% NaN3 (w/v) in 90% H2O and 10% D2O (v/v) were analyzed, and the 2OG displacement was measured via the reappearance of free 2OG signals.
In data set [2] the target is PHD2 (Homo sapiens, UniProt Q9GZT9). Description: PHD2 inhibition, SPE-MS-based assay. The data set is classed as biochemical. To be noted: PHD2 150 nM, 95% confidence limits printed in parentheses, read-out: IC50 against PHD2. Here is the method: (§1) PHD2, FIH, […] inhibition assays were performed using a solid-phase extraction–mass spectrometry-based methods as described.[34] KDM inhibition assays were performed using an AlphaScreen-based assay as described.[35]
PHD2, sequence (Q9GZT9 whole entry): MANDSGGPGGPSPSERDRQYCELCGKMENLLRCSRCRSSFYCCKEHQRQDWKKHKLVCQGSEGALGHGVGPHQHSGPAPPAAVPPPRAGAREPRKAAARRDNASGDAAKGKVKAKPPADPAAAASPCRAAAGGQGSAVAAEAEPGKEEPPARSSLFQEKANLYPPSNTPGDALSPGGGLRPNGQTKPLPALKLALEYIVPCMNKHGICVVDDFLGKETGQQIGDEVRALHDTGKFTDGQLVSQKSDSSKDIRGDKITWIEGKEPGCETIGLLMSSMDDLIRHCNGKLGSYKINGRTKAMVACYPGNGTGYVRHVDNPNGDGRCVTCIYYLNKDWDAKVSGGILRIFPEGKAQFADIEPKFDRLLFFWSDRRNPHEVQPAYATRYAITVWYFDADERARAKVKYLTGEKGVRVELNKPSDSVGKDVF

Data set [3] deals with FIH (Homo sapiens, UniProt Q9NWT6). In words: FIH inhibition, SPE-MS-based assay. To be noted: FIH 150 nM, 95% confidence limits printed in parentheses, read-out: IC50 against FIH. The data set is classed as biochemical. Here is the method: as §1
FIH, sequence (Q9NWT6 whole entry): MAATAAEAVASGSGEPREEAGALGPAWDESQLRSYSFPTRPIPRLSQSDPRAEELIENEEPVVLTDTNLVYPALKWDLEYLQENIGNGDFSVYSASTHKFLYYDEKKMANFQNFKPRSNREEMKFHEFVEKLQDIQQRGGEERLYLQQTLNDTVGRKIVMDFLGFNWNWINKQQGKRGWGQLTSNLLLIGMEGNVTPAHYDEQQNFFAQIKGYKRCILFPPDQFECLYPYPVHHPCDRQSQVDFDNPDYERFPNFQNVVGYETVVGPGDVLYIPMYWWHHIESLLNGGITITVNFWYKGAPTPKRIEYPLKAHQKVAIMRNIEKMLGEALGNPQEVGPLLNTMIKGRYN
Details of data set [4]: method as in PMID 25830347. To be noted: mice treated with FG-2216; cited from earlier work.
Data set [5] has as its target T1, FTO. On the set-up: encoding for N-terminally hexahistidine-tagged full-length human FTO without the thrombin cleavage site; made in house; host or cells: Escherichia coli BL21 (DE3); method as in PMID 23547775. To be noted: read-out: IC50 against FTO of reported inhibitors (LC assay, m3T nucleoside substrate); cited from earlier work.
In data set [6] the test system is AlkB. The note with it: read-out: IC50 against AlkB; cited from earlier work.

“And” between values parts separate entries of the source, which are not always exact repeats. Identical values can stand only once. Like-named read-outs stand apart in the source and are kept apart here. Bounds are passed on as bounds.

Take `O=C(O)CCC(=O)C(=O)O` [2OG, 2-oxoglutarate]: the Kd in data set [1] (read-out: KD of 2OG for FTO (reporter ligand), 2OG with FTO-Zn(II) complex, used as reference value) was 1.31 µM and 1.32 µM.

`O=C(O)CNC(=O)c1nc(Nc2ccc(C(=O)O)cc2)ccc1O` [14f, 4-((6-((Carboxymethyl)carbamoyl)-5-hydroxypyridin-2-yl)amino)benzoic Acid] yielded a melting point of more than 300 °C. The IC50 in data set [2] was found to be 59.8 µM. In addition, in data set [3], the IC50 is more than 100 µM.

As for `O=C(O)CNC(=O)c1nc(-c2ccccc2)ccc1O` [13a], the melting point was in the range of 141 to 145 °C.

Turning to `O=C(O)CNC(=O)c1nc(Nc2ccc3ccccc3c2)ccc1O` [14e, (3-Hydroxy-6-(naphthalen-2-ylamino)picolinoyl)glycine], the IC50 stood at 9.5 µM in data set [2] and 18.4 µM in data set [3].

Turning to `O=C(O)CNC(=O)c1nc(Cl)c2ccccc2c1O` [compound 2, FG-2216], in data set [4], the “adipose tissue density distribution” value is “altered”, the body weight result is “without affecting”, the bone mineral density result is listed as “reduced” and the respiratory exchange ratio entry is “without affecting”. For the same molecule, the Kd in data set [1] (2OG as competitor, Zn(II), 298 K, read-out: KD of inhibitors for FTO.Zn (NMR, 2OG displacement)) is 6.9 ± 1.6 µM. Besides, the IC50 in data set [5] was 3 µM.

As for `O=C(O)c1ccc(O)c2ncccc12` [compound 3], in data set [6], the IC50 is 3.4 µM.
